Laboratory results published in US9282741B2, “Aniline type compounds” (BASF SE, priority 2011, dated 2016).

System: Tobacco Budworm (Heliothis virescens)
Test: Tobacco budworm (Heliothis virescens) I, foliar spray on cotton plants
Format: in vivo
Conditions: 800 ppm, 4 days after treatment
Procedure: B.3 Tobacco Budworm (Heliothis virescens) I
The active compounds are formulated in cyclohexanone as a 10,000 ppm solution supplied in tubes. The tubes are inserted into an automated electrostatic sprayer equipped with an atomizing nozzle and they serve as stock solutions for which lower dilutions are made in 50% acetone:50% water (v/v). A nonionic surfactant (Kinetic®) is included in the solution at a volume of 0.01% (v/v).
Cotton plants are grown 2 plants to a pot and selected for treatment at the cotyledon stage. Test solutions are sprayed onto the foliage by an automated electrostatic plant sprayer equipped with an atomizing spray nozzle. The plants are dried in the sprayer fume hood and then removed from the sprayer. Each pot is placed into perforated plastic bags with a zip closure. About 10 to 11 budworm larvae are placed into the bag and the bags zipped closed. Test plants are maintained in a growth room at about 250C and about 20-40% relative humidity for 4 days, avoiding direct exposure to fluorescent light (24 hour photoperiod) to prevent trapping of heat inside the bags. Mortality and reduced feeding are assessed 4 days after treatment, compared to untreated control plants.

SMILES | mortality in comparison with untreated controls
CCCS(CCC)=NC(=O)c1cc(Cl)cc(Cl)c1N [S.22] | over 75%

System: vetch aphid (Megoura viciae)
Test: Vetch aphid (Megoura viciae) broad bean leaf disk microtiter test
Format: in vivo
Conditions: 1415 ppm; broad bean leaf disks; 5 days
Procedure: B.2 Vetch Aphid (Megoura viciae)
For evaluating control of vetch aphid (Megoura viciae) through contact or systemic means the test unit consists of 24-well-microtiter plates containing broad bean leaf disks.
The compounds are formulated using a solution containing 75% v/v water and 25% v/v DMSO. Different concentrations of formulated compounds are sprayed onto the leaf disks at 2.5 μl, using a custom built micro atomizer, at two replications.
After application, the leaf disks are air-dried and 5-8 adult aphids placed on the leaf disks inside the microtiter plate wells. The aphids are then allowed to suck on the treated leaf disks and incubated at about […] and about 50±5% relative humidity for 5 days. Aphid mortality and fecundity is then visually assessed.

SMILES | mortality in comparison with untreated controls
CCS(CC1CC1)=NC(=O)c1cc(Cl)cc(C)c1N (centres unmarked) [S.9] | over 75%

System: not listed separately
Test: log P determination via capillary electrophorese (cePro9600)
Format: physicochemical
Conditions: pH = 10.0
Procedure: log P determinations were performed via capillary electrophorese on a cePro9600™ from CombiSep.

SMILES | logP
Cc1cc(Cl)cc(C(=O)N=S(C(C)C)C(C)C)c1NC(=O)c1cc(C(F)(F)F)nn1-c1ncccc1Cl [compound 24] | logP: 3.3 [pH = 10.0].
Cc1cc(I)cc(C(=O)N=S2CCCCC2)c1NC(=O)c1cc(C(F)(F)F)nn1-c1ncccc1Cl [compound 71] | logP: 3.6 [pH = 10.0];
Cc1cc(I)cc(C(=O)N=S(C(C)C)C(C)C)c1NC(=O)c1cc(C(F)(F)F)nn1-c1ncccc1Cl [compound 120] | logP: 3.4 [pH = 10.0];
Cc1cc(I)cc(C(=O)N=S2CCSC2)c1NC(=O)c1cc(C(F)(F)F)nn1-c1ncccc1Cl (centres unmarked) [compound 129] | logP: 3.5 [pH = 10.0];
Cc1cc(I)cc(C(=O)N=S2CCCC2)c1NC(=O)c1cc(C(F)(F)F)nn1-c1ncccc1Cl [compound 137] | logP: 3.1 [pH = 10.0];
C#CCOc1cc(C(=O)Nc2c(C)cc(I)cc2C(=O)N=S(CCO)CCCCC)n(-c2ncccc2Cl)n1 (centres unmarked) [compound 195] | logP: 3.5 [pH = 10.0]
C#CCOc1cc(C(=O)Nc2c(C)cc(I)cc2C(=O)N=S(C(C)C)C(C)C)n(-c2ncccc2Cl)n1 [compound 196] | logP: 3.1 [pH = 10.0]
C#CCOc1cc(C(=O)Nc2c(C)cc(Cl)cc2C(=O)N=S(C(C)C)C(C)C)n(-c2ncccc2Cl)n1 [compound 197] | logP: 2.7 [pH = 10.0]
C#CCOc1cc(C(=O)Nc2c(C)cc(Cl)cc2C(=O)N=S2CCSC2)n(-c2ncccc2Cl)n1 (centres unmarked) [compound 200] | logP: 2.5 [pH = 10.0]
C#CCOc1cc(C(=O)Nc2c(C)cc(Cl)cc2C(=O)N=S(C)c2ccc(F)cc2)n(-c2ncccc2Cl)n1 (centres unmarked) [compound 201] | logP: 2.9 [pH = 10.0]
C#CCOc1cc(C(=O)Nc2c(C)cc(I)cc2C(=O)N=S(C)c2ccc(F)cc2)n(-c2ncccc2Cl)n1 (centres unmarked) [compound 204] | logP: 3.4 [pH = 10.0]
C#CCOc1cc(C(=O)Nc2c(C)cc(Cl)cc2C(=O)N=S2CCCCC2)n(-c2ncccc2Cl)n1 [compound 209] | logP: 2.8 [pH = 10.0]
C#CCOc1cc(C(=O)Nc2c(C)cc(Cl)cc2C(=O)N=S(CCO)CCCCC)n(-c2ncccc2Cl)n1 (centres unmarked) [compound 216] | logP: 3.3 [pH = 10.0]
Cc1cc(I)cc(C(=O)N=S2CCSC2)c1NC(=O)c1cc(Br)nn1-c1ncccc1Cl (centres unmarked) [compound 221] | logP: 3.3 [pH = 10.0];
Cc1cccc(C(=O)N=S2CCCC2)c1NC(=O)c1cc(Br)nn1-c1ncccc1Cl [compound 222] | logP: 2.1 [pH = 10.0]
CCS(C)=NC(=O)c1cc(I)cc(C)c1NC(=O)c1cc(Br)nn1-c1ncccc1Cl (centres unmarked) [compound 223] | logP: 3.1 [pH = 10.0];
CCS(C)=NC(=O)c1cc(Cl)cc(C)c1NC(=O)c1cc(Br)nn1-c1ncccc1Cl (centres unmarked) [compound 224] | logP: 2.7 [pH = 10.0];
Cc1cc(Cl)cc(C(=O)N=S(C)c2ccc(F)cc2)c1NC(=O)c1cc(Br)nn1-c1ncccc1Cl (centres unmarked) [compound 235] | logP: 3.2 [pH = 10.0];
Cc1cccc(C(=O)N=S(C(C)C)C(C)C)c1NC(=O)c1cc(Br)nn1-c1ncccc1Cl [compound 236] | logP: 2.3 [pH = 10.0];
Cc1cccc(C(=O)N=S(C)c2ccc(F)cc2)c1NC(=O)c1cc(Br)nn1-c1ncccc1Cl (centres unmarked) [compound 237] | logP: 2.7 [pH = 10.0];
Cc1cc(I)cc(C(=O)N=S(C)c2ccc(F)cc2)c1NC(=O)c1cc(Br)nn1-c1ncccc1Cl (centres unmarked) [compound 238] | logP: 3.5 [pH = 10.0];
Cc1cc(Cl)cc(C(=O)N=S(C(C)C)C(C)C)c1NC(=O)c1cc(Br)nn1-c1ncccc1Cl [compound 243] | logP: 2.9 [pH = 10.0]
Cc1cc(I)cc(C(=O)N=S2CCCC2)c1NC(=O)c1cc(Br)nn1-c1ncccc1Cl [compound 246] | logP: 2.9 [pH = 10.0];
CCCCCS(CCO)=NC(=O)c1cccc(C)c1NC(=O)c1cc(Br)nn1-c1ncccc1Cl (centres unmarked) [compound 250] | logP: 2.9 [pH = 10.0]
CCCCCS(CCO)=NC(=O)c1cc(I)cc(C)c1NC(=O)c1cc(Br)nn1-c1ncccc1Cl (centres unmarked) [compound 252] | logP: 3.7 [pH = 10.0]
Cc1cc(I)cc(C(=O)N=S(C(C)C)C(C)C)c1NC(=O)c1cc(Br)nn1-c1ncccc1Cl [compound 257] | logP: 3.3 [pH = 10.0];
CCCCCS(CCO)=NC(=O)c1cc(Cl)cc(C)c1NC(=O)c1cc(Br)nn1-c1ncccc1Cl (centres unmarked) [compound 258] | logP: 3.4 [pH = 10.0];
Cc1cc(I)cc(C(=O)N=S2CCCCC2)c1NC(=O)c1cc(Br)nn1-c1ncccc1Cl [compound 267] | logP: 3.4 [pH = 10.0];
CCS(CCCl)=NC(=O)c1cc(I)cc(C)c1NC(=O)c1cc(Br)nn1-c1ncccc1Cl (centres unmarked) [compound 268] | logP: 3.2 [pH = 10.0];

Next, values leading:

logP | SMILES
logP: 3.2 [pH = 10.0] | CCCS(C)=NC(=O)c1cc(I)cc(C)c1NC(=O)c1cc(Br)nn1-c1ncccc1Cl (racemic) [compound 272]
logP: 3.2 [pH = 10.0] | CCCS(C)=NC(=O)c1cc(Cl)cc(C)c1NC(=O)c1cc(C(F)(F)F)nn1-c1ncccc1Cl (centres unmarked) [compound 11]
logP: 3.2 [pH = 10.0]; | Cc1cc(I)cc(C(=O)N=S(C)C)c1NC(=O)c1cc(C(F)(F)F)nn1-c1ncccc1Cl [compound 31]
logP: 3.3 [pH = 10.0]; | CCS(C)=NC(=O)c1cc(I)cc(C)c1NC(=O)c1cc(C(F)(F)F)nn1-c1ncccc1Cl (centres unmarked) [compound 33]
logP: 3.6 [pH = 10.0]; | CCCCCS(CCO)=NC(=O)c1cc(Cl)cc(C)c1NC(=O)c1cc(C(F)(F)F)nn1-c1ncccc1Cl (centres unmarked) [compound 48]
logP: 3.6 [pH = 10.0]; | CCCS(C)=NC(=O)c1cc(I)cc(C)c1NC(=O)c1cc(C(F)(F)F)nn1-c1ncccc1Cl (centres unmarked) [compound 93]
logP: 2.9 [pH = 10.0]; | Cc1cc(Cl)cc(C(=O)N=S(C)C)c1NC(=O)c1cc(C(F)(F)F)nn1-c1ncccc1Cl [compound 110]
logP: 3.9 [pH = 10.0]; | CCCCCS(CCO)=NC(=O)c1cc(I)cc(C)c1NC(=O)c1cc(C(F)(F)F)nn1-c1ncccc1Cl (centres unmarked) [compound 113]
logP: 2.9 [pH = 10.0]; | CCS(C)=NC(=O)c1cc(Cl)cc(C)c1NC(=O)c1cc(C(F)(F)F)nn1-c1ncccc1Cl (centres unmarked) [compound 152]
logP: 2.2 [pH = 10.0]; | Cc1cccc(C(=O)N=S(C)C)c1NC(=O)c1cc(C(F)(F)F)nn1-c1ncccc1Cl [compound 199]
logP: 2.5 [pH = 10.0]; | CCS(C)=NC(=O)c1cccc(C)c1NC(=O)c1cc(C(F)(F)F)nn1-c1ncccc1Cl (centres unmarked) [compound 210]
logP: 2.8 [pH = 10.0]; | CCCS(C)=NC(=O)c1cccc(C)c1NC(=O)c1cc(C(F)(F)F)nn1-c1ncccc1Cl (centres unmarked) [compound 211]
logP: 3.4 [pH = 10.0]; | CCCCCS(CCO)=NC(=O)c1cccc(C)c1NC(=O)c1cc(C(F)(F)F)nn1-c1ncccc1Cl (centres unmarked) [compound 213]
logP: 2.7 [pH = 10.0]; | Cc1cccc(C(=O)N=S(C(C)C)C(C)C)c1NC(=O)c1cc(C(F)(F)F)nn1-c1ncccc1Cl [compound 214]
logP: 3.2 [pH = 10.0]; | Cc1cccc(C(=O)N=S(C)c2ccc(F)cc2)c1NC(=O)c1cc(C(F)(F)F)nn1-c1ncccc1Cl (centres unmarked) [compound 215]
logP: 2.9 [pH = 10.0]; | CCCS(C)=NC(=O)c1cc(Cl)cc(C)c1NC(=O)c1cc(Br)nn1-c1ncccc1Cl (centres unmarked) [compound 242]
logP: 2.1 [pH = 10.0]; | C=CS(CC)=NC(=O)c1cccc(C)c1NC(=O)c1cc(Br)nn1-c1ncccc1Cl (centres unmarked) [compound 261]
logP: 2.3 [pH = 10.0]; | CCCS(C)=NC(=O)c1cccc(C)c1NC(=O)c1cc(Br)nn1-c1ncccc1Cl (centres unmarked) [compound 263]
logP: 1.9 [pH = 10.0]; | Cc1cccc(C(=O)N=S(C)C)c1NC(=O)c1cc(Br)nn1-c1ncccc1Cl [compound 274]
